Data: patent publication US20210238598A1, “COMPOSITIONS, SYSTEMS, AND METHODS FOR BASE DIVERSIFICATION” (Pairwise Plants Services, Inc., priority 2020, published 2021)

Biological target: T1, APE1 (Homo sapiens, UniProt P27695)
T1 construct: endogenous in cells; host or cells: HEK293T (ATCC CRL-3216)
Assay: APE1 inhibitor effect on indels and base diversification by AID or pmCDA1 fused to Cas9 nickase (D10A), HTS
Assay type: cell-based
Settings: HEK293T cells, 100 μM and 200 μM, 3d, FIG. 6
Description: APE1 was inhibited by using CRT0044876 (Scheme 1), which is a potent and well-known APE1 inhibitor.
To ascertain whether this compound improves base diversification profile, HEK293T cells were treated with AID or pmCDA1 fused to Cas9 nickase (D10A) in the presence of CRT0044876. After 3d, the cells were harvested and analyzed through high-throughput sequencing (HTS).

T1 sequence (P27695 whole entry): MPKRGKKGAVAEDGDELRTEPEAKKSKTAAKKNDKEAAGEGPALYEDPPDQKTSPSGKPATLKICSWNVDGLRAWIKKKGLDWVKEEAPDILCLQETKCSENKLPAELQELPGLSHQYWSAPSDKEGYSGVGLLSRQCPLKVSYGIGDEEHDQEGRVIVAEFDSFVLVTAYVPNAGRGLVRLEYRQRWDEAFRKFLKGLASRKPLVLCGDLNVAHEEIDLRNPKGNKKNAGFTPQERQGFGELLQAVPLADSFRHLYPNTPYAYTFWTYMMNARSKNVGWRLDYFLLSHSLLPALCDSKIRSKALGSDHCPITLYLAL

base diversification rate: some decrease
amount of indel generated (multiple target sites): significant decrease
SMILES: O=C(O)c1cc2cccc([N+](=O)[O-])c2[nH]1 [CRT0044876]
